Data: ChEMBL document CHEMBL1201862, “PubChem BioAssay data set” (2004)
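Briefly, cells in 96-well plates were exposed to five compound concentrations for 48 h, and endpoints were estimated by linear interpolation. The concentration for 50% growth inhibition is given as GI50.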 Calls of active or inactive are those of the source. No stated cut-off is given here; in the data, active = GI50 up to about 1.1 µM and inactive = higher.

Assays:
Test in all cases: growth of human tumour cells (NCI), 48 h
NCI/ADR-RES = system: NCI/ADR-RES
HL-60 = system: HL-60
HT-29 = system: HT-29
A549 = system: A549
NCI-H522 = system: NCI-H522
OVCAR-3 = system: OVCAR-3
SK-OV-3 = system: SK-OV-3
UO-31 = system: UO-31
HCT-116 = system: HCT-116
SW-620 = system: SW-620
A498 = system: A498
SK-MEL-5 = system: SK-MEL-5
NCI-H226 = system: NCI-H226
SNB-19 = system: SNB-19
KM12 = system: KM12
HOP-92 = system: HOP-92
RXF 393 = system: RXF 393
786-0 = system: 786-0
MDA-MB-231 = system: MDA-MB-231
EKVX = system: EKVX
Malme-3M = system: Malme-3M
IGROV-1 = system: IGROV-1
ACHN = system: ACHN
SF-268 = system: SF-268
SNB-75 = system: SNB-75
BT-549 = system: BT-549
HOP-62 = system: HOP-62
MDA-N = system: MDA-N
SF-295 = system: SF-295
OVCAR-4 = system: OVCAR-4
U-251 = system: U-251
COLO 205 = system: COLO 205
CAKI-1 = system: CAKI-1
NCI-H460 = system: NCI-H460
SF-539 = system: SF-539
SK-MEL-2 = system: SK-MEL-2
TK-10 = system: TK-10
SK-MEL-28 = system: SK-MEL-28
MDA-MB-435 = system: MDA-MB-435
K562 = system: K562
UACC-62 = system: UACC-62
SN12C = system: SN12C
M14 = system: M14
MOLT-4 = system: MOLT-4
DU-145 = system: DU-145
HCT-15 = system: HCT-15
SR = system: SR
PC-3 = system: PC-3
MCF7 = system: MCF7
OVCAR-5 = system: OVCAR-5
CCRF-CEM = system: CCRF-CEM
RPMI-8226 = system: RPMI-8226
UACC-257 = system: UACC-257
T47D = system: T47D
LOX IMVI = system: LOX IMVI
NCI-H23 = system: NCI-H23
HCC 2998 = system: HCC 2998

With `CSc1cnc2ccccc2c1SC1CN(Cc2ccccc2)c2ccccc2C1=O` (configuration not stated) as the compound, how does the GI50 (NCI/ADR-RES) read?
The GI50 was > 100 µM (inactive).

What about the GI50 (HL-60) of the same compound?
Its GI50 is 35 µM (inactive).

What about the GI50 (HT-29) of the same compound?
The GI50 was 47.9 µM (inactive).

And the GI50 (A549)?
Its GI50 is > 100 µM (inactive).

And the GI50 (NCI-H522)?
Its GI50 is > 100 µM (inactive).

What about the GI50 (OVCAR-3) of the same compound?
Its GI50 is > 100 µM (inactive).

What about the GI50 (SK-OV-3) of the same compound?
The GI50 was > 100 µM (inactive).

And the GI50 (UO-31)?
Its GI50 is > 100 µM (inactive).

What about the GI50 (HCT-116) of the same compound?
Its GI50 is > 100 µM (inactive).

And the GI50 (SW-620)?
Its GI50 is > 100 µM (inactive).

What about the GI50 (A498) of the same compound?
The GI50 was > 100 µM (inactive).

And the GI50 (SK-MEL-5)?
The GI50 was > 100 µM (inactive).

What about the GI50 (NCI-H226) of the same compound?
The GI50 was > 100 µM (inactive).

What about the GI50 (SNB-19) of the same compound?
Its GI50 is > 100 µM (inactive).

And the GI50 (KM12)?
Its GI50 is > 100 µM (inactive).

What about the GI50 (HOP-92) of the same compound?
The GI50 was > 100 µM (inactive).

And the GI50 (RXF 393)?
Its GI50 is > 100 µM (inactive).

What about the GI50 (786-0) of the same compound?
Its GI50 is > 100 µM (inactive).

And the GI50 (MDA-MB-231)?
The GI50 was > 100 µM (inactive).

What about the GI50 (EKVX) of the same compound?
The GI50 was > 100 µM (inactive).

And the GI50 (Malme-3M)?
The GI50 was > 100 µM (inactive).

What about the GI50 (IGROV-1) of the same compound?
The GI50 was > 100 µM (inactive).

And the GI50 (ACHN)?
Its GI50 is > 100 µM (inactive).

What about the GI50 (SF-268) of the same compound?
The GI50 was 54.8 µM (inactive).

What about the GI50 (SNB-75) of the same compound?
The GI50 was 83.4 µM (inactive).

And the GI50 (BT-549)?
Its GI50 is > 100 µM (inactive).

What about the GI50 (HOP-62) of the same compound?
The GI50 was 32.1 µM (inactive).

What about the GI50 (MDA-N) of the same compound?
Its GI50 is > 100 µM (inactive).

And the GI50 (SF-295)?
Its GI50 is > 100 µM (inactive).

And the GI50 (OVCAR-4)?
The GI50 was > 100 µM (inactive).

And the GI50 (U-251)?
Its GI50 is > 100 µM (inactive).

What about the GI50 (COLO 205) of the same compound?
Its GI50 is > 100 µM (inactive).

What about the GI50 (CAKI-1) of the same compound?
Its GI50 is > 100 µM (inactive).

What about the GI50 (NCI-H460) of the same compound?
Its GI50 is > 100 µM (inactive).

And the GI50 (SF-539)?
The GI50 was > 100 µM (inactive).

What about the GI50 (SK-MEL-2) of the same compound?
The GI50 was > 100 µM (inactive).

And the GI50 (TK-10)?
Its GI50 is > 100 µM (inactive).

What about the GI50 (SK-MEL-28) of the same compound?
Its GI50 is > 100 µM (inactive).

And the GI50 (MDA-MB-435)?
Its GI50 is > 100 µM (inactive).

And the GI50 (K562)?
The GI50 was > 100 µM (inactive).

And the GI50 (UACC-62)?
The GI50 was > 100 µM (inactive).

And the GI50 (SN12C)?
Its GI50 is > 100 µM (inactive).

What about the GI50 (M14) of the same compound?
The GI50 was > 100 µM (inactive).

What about the GI50 (MOLT-4) of the same compound?
The GI50 was > 100 µM (inactive).

And the GI50 (DU-145)?
Its GI50 is > 100 µM (inactive).

And the GI50 (HCT-15)?
The GI50 was > 100 µM.

What about the GI50 (SR) of the same compound?
Its GI50 is > 100 µM (inactive).

And the GI50 (PC-3)?
Its GI50 is > 100 µM (inactive).

And the GI50 (MCF7)?
The GI50 was > 100 µM (inactive).

What about the GI50 (OVCAR-5) of the same compound?
The GI50 was > 100 µM (inactive).

And the GI50 (CCRF-CEM)?
Its GI50 is > 100 µM (inactive).

What about the GI50 (RPMI-8226) of the same compound?
Its GI50 is > 100 µM (inactive).

What about the GI50 (UACC-257) of the same compound?
Its GI50 is > 100 µM (inactive).

What about the GI50 (T47D) of the same compound?
Its GI50 is > 100 µM (inactive).

And the GI50 (LOX IMVI)?
The GI50 was > 100 µM (inactive).

What about the GI50 (NCI-H23) of the same compound?
Its GI50 is > 100 µM (inactive).

And the GI50 (HCC 2998)?
The GI50 was > 100 µM (inactive).
